Assay results taken from patent US9096608B2, “Pharmaceutically active pyrazolo-triazine derivatives” (LEAD DISCOVERY CENTER GMBH, priority 2012, dated 2015).

Columns and labels:
Format in all cases: biochemical
[1] = molecular target: T1, CDK2/CycA (Homo sapiens, UniProt P24941); assay: CDK2 Enzymatic Activity Assay (Lance Kinase Activity Assay, FRET); conditions: Table 5B; symbols per IC50 ranges of b615
T1 construct: purchased Proqinase
Experimental: This protocol describes how the Lance Kinase Activity Assay was performed to determine IC50 values of compounds of general formula (I) against CDK/Cyclin complexes. The principle behind this enzymatic assay is based upon the phosphorylation of the Ulight-Peptide Substrat. It is detected by using a specific EU-labeled anti-phospho peptide antibody.
Binding of an inhibitor to the kinase prevents phosphorylation of the ULlight-MBP Substrat, resulting in a loss of FRET.
CDK2 Enzymatic Activity Assay
The compounds of general formula (I) exemplary summarized in Table 1 were diluted from a 10 mM DMSO stock solution 1:10 in a total volume of 15 μl DMSO. This compound predilution was then serial diluted 1:3 over 8 steps in DMSO and briefly spun down. Each compound solution was now diluted 1:20 in Enzymatic Buffer (HEPES: 50 mM, pH: 7.5; MgCl2: 10 mM; EGTA: 1 mM; DTT: 2 mM; Tween-20: 0.01%), mixed thoroughly and spun down.
For positive controls, 2 μl of DMSO working solution were mixed with 6 μl CDK2/CycA/substrate working solution and 2 μl ATP working solution. Positive and negative controls were calculated from at least 8 different wells. The 384 well plates were mixed in a Teleshaker plate mixer (Beckman Coulter, Brea, Calif., USA) at 2000 rpm for 40 sec, and incubated for 1 h at room temperature before addition of 10 μl LANCE Detection Buffer (EDTA: […]; Eu-Anti-P-MBP: 4 nM) per well. Plates were mixed in a Teleshaker plate mixer (Beckman Coulter, Brea, Calif., USA) at 2000 rpm for […], followed by incubation with Detection Buffer for 1 h, and reading. […] IC50 values were determined from the sigmoidal dose response curves with the software Quattro Workflow (Quattro GmbH, Munich, Germany).

[2] = molecular target: T2, CDK7/CycH/Mat1 (Homo sapiens, UniProt P50613); assay: CDK7 Enzymatic Activity Assay (Lance Kinase Activity Assay, FRET); conditions: Table 5A; 25 μM ATP final; read-out: CDK7: IC50 [mM] for CDK7 inhibition (the above defined ranges apply)
T2 construct: purchased Carna
How it was run: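 TR-FRET (LANCE) kinase assay with ULight-MBP peptide substrate and Eu-labelled anti-phospho antibody; compounds in 8-point 1:3 series in HEPES 50 mM pH 7.5, MgCl2 10 mM, EGTA 1 mM, DTT 2 mM, 0.01% Tween-20.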

[3] = molecular target: T3, CDK9/Cyclin T1 (Homo sapiens, UniProt P50750); assay: CDK9 Enzymatic Activity Assay (Lance Kinase Activity Assay, FRET); conditions: Table 5B; symbols per IC50 ranges of b615
T3 construct: purchased Invitrogen
How it was run: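 TR-FRET detection of ULight-MBP substrate phosphorylation by CDK9/cyclin T1 using a Eu-anti-phospho-MBP antibody, in 50 mM HEPES pH 7.5, 10 mM MgCl2, 1 mM EGTA, 2 mM DTT, 0.01% Tween-20. Kinase reaction 1 h at room temperature, then EDTA detection buffer for 1 h before reading.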

T2 sequence (P50613 whole entry): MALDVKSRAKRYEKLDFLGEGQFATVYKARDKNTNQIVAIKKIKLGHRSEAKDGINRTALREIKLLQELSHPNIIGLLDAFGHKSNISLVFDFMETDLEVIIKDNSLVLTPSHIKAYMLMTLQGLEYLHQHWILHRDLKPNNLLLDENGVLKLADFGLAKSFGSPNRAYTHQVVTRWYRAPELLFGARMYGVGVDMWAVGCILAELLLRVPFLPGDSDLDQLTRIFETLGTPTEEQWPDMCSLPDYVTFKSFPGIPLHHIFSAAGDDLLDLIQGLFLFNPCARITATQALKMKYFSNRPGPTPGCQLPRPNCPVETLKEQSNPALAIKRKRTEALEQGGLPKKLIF
T2 sequence (P51946 whole entry partner): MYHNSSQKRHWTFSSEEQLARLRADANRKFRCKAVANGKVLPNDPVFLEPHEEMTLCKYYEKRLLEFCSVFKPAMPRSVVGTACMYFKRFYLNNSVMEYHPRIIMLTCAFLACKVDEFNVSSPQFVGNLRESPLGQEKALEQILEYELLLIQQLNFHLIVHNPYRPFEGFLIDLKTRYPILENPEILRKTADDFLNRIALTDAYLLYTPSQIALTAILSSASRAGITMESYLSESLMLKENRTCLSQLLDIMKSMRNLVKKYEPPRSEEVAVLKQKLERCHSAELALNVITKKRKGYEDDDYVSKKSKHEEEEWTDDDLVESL
T2 sequence (P51948 whole entry partner): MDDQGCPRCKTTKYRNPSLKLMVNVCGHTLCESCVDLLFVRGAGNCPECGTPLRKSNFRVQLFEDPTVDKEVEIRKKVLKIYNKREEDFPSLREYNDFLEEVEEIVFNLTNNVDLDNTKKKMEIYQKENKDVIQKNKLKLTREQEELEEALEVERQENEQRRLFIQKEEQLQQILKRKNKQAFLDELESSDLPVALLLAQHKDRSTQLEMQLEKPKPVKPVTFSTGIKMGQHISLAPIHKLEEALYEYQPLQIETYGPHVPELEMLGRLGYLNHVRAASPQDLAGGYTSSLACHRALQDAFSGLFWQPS
T3 sequence (P50750 whole entry): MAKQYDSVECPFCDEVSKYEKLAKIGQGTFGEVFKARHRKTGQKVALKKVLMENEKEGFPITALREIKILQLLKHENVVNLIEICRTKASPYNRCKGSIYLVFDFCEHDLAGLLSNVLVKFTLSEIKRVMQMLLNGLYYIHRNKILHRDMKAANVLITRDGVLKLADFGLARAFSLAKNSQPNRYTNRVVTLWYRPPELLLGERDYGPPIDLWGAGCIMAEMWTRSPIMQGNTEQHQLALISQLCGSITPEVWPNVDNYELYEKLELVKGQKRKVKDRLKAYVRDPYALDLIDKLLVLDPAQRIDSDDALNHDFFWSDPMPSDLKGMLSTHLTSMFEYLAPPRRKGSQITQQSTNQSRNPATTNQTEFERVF
T3 sequence (O60563 whole entry partner): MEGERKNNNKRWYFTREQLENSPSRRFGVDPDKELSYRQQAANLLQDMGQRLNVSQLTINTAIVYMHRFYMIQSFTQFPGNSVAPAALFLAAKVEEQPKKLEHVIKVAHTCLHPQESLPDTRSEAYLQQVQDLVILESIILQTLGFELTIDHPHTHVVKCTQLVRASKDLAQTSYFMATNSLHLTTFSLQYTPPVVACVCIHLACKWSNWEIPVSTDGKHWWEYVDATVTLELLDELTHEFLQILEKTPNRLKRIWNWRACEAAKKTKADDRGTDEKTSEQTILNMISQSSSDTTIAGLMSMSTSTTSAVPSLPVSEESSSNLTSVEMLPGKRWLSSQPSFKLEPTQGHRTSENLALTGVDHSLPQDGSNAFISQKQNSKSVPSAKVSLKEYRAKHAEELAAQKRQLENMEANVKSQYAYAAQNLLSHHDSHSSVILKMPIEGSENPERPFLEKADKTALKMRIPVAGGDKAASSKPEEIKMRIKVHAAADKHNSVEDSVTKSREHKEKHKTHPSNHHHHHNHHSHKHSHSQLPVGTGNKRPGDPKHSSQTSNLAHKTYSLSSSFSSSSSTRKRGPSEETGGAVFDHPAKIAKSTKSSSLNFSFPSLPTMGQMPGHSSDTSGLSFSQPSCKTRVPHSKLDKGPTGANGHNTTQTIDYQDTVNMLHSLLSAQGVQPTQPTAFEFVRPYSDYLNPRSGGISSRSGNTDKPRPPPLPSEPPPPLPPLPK

CDK2 IC50 range class [1]	IC50 [2] [nM]	CDK9: Selectivity of CDK7 inhibition over CDK9 inhibition [fold] [3]	SMILES
+++ (IC50>2500 nM)	< 10	+++ (IC50>2500 nM)	CC(C)c1cnn2c(N[C@@H](C)c3ccccc3Br)nc(O[C@@H]3CCCNC3)nc12 [(VII-be), N-((S)-1-(2-bromophenyl)ethyl)-8-isopropyl-2-((R)-piperidin-3-yloxy)pyrazolo[1,5-a][1,3,5]triazin-4-amine]
+++ (IC50>2500 nM)	10 to 30	+++ (IC50>2500 nM)	COc1cccc([C@H](C)Nc2nc(N3CCC34CCCNC4)nc3c(C(C)C)cnn23)c1 (stereo partly drawn) [(VIII-ag), 8-isopropyl-N-((S)-1-(3-methoxyphenyl)ethyl)-2-(1,6-diazaspiro[3.5]nonan-1-yl)pyrazolo[1,5-a][1,3,5]triazin-4-amine]
+++ (IC50>2500 nM)	30 to 100	+++ (IC50>2500 nM)	COc1cccc([C@H](C)Nc2nc(CNC3CCNC3)nc3c(C(C)C)cnn23)c1 (stereo partly drawn) [(XXIX-4), 8-isopropyl-N-((S)-1-(3-methoxyphenyl)ethyl)-2-((pyrrolidin-3-ylamino)methyl)pyrazolo[1,5-a][1,3,5]triazin-4-amine]
+++ (IC50>2500 nM)	> 100	+++ (IC50>2500 nM)	COc1cccc([C@H](C)Nc2nc(N(C)CCN3CCCC3)nc3c(C(C)C)cnn23)c1 [(VIII-k), (S)-8-isopropyl-N4-(1-(3-methoxyphenyl)ethyl)-N2-methyl-N2-(2-(pyrrolidin-1-yl)ethyl)pyrazolo[1,5-a][1,3,5]triazine-2,4-diamine]
+++ (IC50>2500 nM)	> 100	+++ (IC50>2500 nM)	COC(=O)C(CN)Nc1nc(N[C@@H](C)c2cccc(OC)c2)n2ncc(C(C)C)c2n1 (stereo partly drawn) [(VIII-y), methyl 3-amino-2-((8-isopropyl-4-(((S)-1-(3-methoxyphenyl)ethyl)amino)pyrazolo[1,5-a][1,3,5]triazin-2-yl)amino)propanoate]
+++ (IC50>2500 nM)	> 100	+++ (IC50>2500 nM)	COc1cccc([C@H](C)Nc2nc(C(=O)N3CCNCC3)nc3c(C(C)C)cnn23)c1 [(XXVI-4), (S)-(8-isopropyl-4-((1-(3-methoxyphenyl)ethyl)amino)pyrazolo[1,5-a][1,3,5]triazin-2-yl)(piperazin-1-yl)methanone]
+++ (IC50>2500 nM)	> 100	+++ (IC50>2500 nM)	COc1cccc([C@H](C)Nc2nc(N(C)CCN3CCOCC3)nc3c(C(C)C)cnn23)c1 [(VIII-s), (S)-8-isopropyl-N4-(1-(3-methoxyphenyl)ethyl)-N2-methyl-N2-(2-morpholinoethyl)pyrazolo[1,5-a][1,3,5]triazine-2,4-diamine]
+++ (IC50>2500 nM)	< 10	+++ (IC50>2500 nM)	CC(C)c1cnn2c(NC(C)c3ccccc3S(=O)(=O)N3CCCC3)nc(O[C@@H]3CCCNC3)nc12 (stereo partly drawn) [(VII-bz), 8-isopropyl-2-((R)-piperidin-3-yloxy)-N-(1-(2-(pyrrolidin-1-ylsulfonyl)phenyl)ethyl)pyrazolo[1,5-a][1,3,5]triazin-4-amine]
+++ (IC50>2500 nM)	> 100	+++ (IC50>2500 nM)	COc1cccc([C@H](C)Nc2nc(N3CC(N4CCC(F)(F)C4)C3)nc3c(C(C)C)cnn23)c1 [(VIII-o), (S)-2-(3-(3,3-difluoropyrrolidin-1-yl)azetidin-1-yl)-8-isopropyl-N-(1-(3-methoxyphenyl)ethyl)pyrazolo[1,5-a][1,3,5]triazin-4-amine]
+++ (IC50>2500 nM)	> 100	+++ (IC50>2500 nM)	COc1cccc([C@H](C)Nc2nc(NCCN3CCOCC3)nc3c(C(C)C)cnn23)c1 [(VIII-m), (S)-8-isopropyl-N4-(1-(3-methoxyphenyl)ethyl)-N2-(2-morpholinoethyl)pyrazolo[1,5-a][1,3,5]triazine-2,4-diamine]
+++ (IC50>2500 nM)	< 10	+++ (IC50>2500 nM)	COc1cccc([C@H](C)Nc2nc(OC3COC4(CCNCC4)C3)nc3c(C(C)C)cnn23)c1 (stereo partly drawn) [(VII-bx), 2-(1-oxa-8-azaspiro[4.5]decan-3-yloxy)-8-isopropyl-N-((S)-1-(3-methoxyphenyl)ethyl)pyrazolo[1,5-a][1,3,5]triazin-4-amine]
+++ (IC50>2500 nM)	> 100	+++ (IC50>2500 nM)	COCCN1CCN(Cc2nc(N[C@@H](C)c3cccc(OC)c3)n3ncc(C(C)C)c3n2)CC1 [(XXIX-11), (S)-8-isopropyl-2-((4-(2-methoxyethyl)piperazin-1-yl)methyl)-N-(1-(3-methoxyphenyl)ethyl)pyrazolo[1,5-a][1,3,5]triazin-4-amine]
+++ (IC50>2500 nM)	30 to 100	+++ (IC50>2500 nM)	CC(C)c1cnn2c(N[C@@H](C)c3ccccc3OC(F)(F)F)nc(O[C@@H]3CCCNC3)nc12 [(VII-at), 8-isopropyl-2-((R)-piperidin-3-yloxy)-N-((S)-1-(2-(trifluoro-methoxy)phenyl)ethyl)pyrazolo[1,5-a][1,3,5]triazin-4-amine]
+++ (IC50>2500 nM)	10 to 30	+++ (IC50>2500 nM)	COc1cccc([C@H](C)Nc2nc(N[C@@H]3CCCNC3)nc3c(C(C)C)cnn23)c1 [(VIII-h), 8-isopropyl-N4-((S)-1-(3-methoxyphenyl)ethyl)-N2-((R)-piperidin-3-yl)pyrazolo[1,5-a][1,3,5]triazine-2,4-diamine]
+++ (IC50>2500 nM)	10 to 30	+++ (IC50>2500 nM)	CC(C)c1cnn2c(NC(C)c3cccc4ncccc34)nc(OC3CC4(CC(N)C4)C3)nc12 (stereo not drawn) [(VII-cc), 2-((6-aminospiro[3.3]heptan-2-yl)oxy)-8-isopropyl-N-(1-(quinolin-5-yl)ethyl)pyrazolo[1,5-a][1,3,5]triazin-4-amine]
+++ (IC50>2500 nM)	> 100	+++ (IC50>2500 nM)	COc1cccc([C@H](C)Nc2nc(C(=O)N(C)CCN3CCCC3)nc3c(C(C)C)cnn23)c1 [(XXVI-3), (S)-8-isopropyl-4-((1-(3-methoxyphenyl)ethyl)amino)-N-methyl-N-(2-(pyrrolidin-1-yl)ethyl)pyrazolo[1,5-a][1,3,5]triazine-2-carboxamide]
+++ (IC50>2500 nM)	30 to 100	+++ (IC50>2500 nM)	CC(C)c1cnn2c(N[C@@H](C)c3cccc(Cl)c3)nc(O[C@@H]3CCCNC3)nc12 [(VII-aj), N-((S)-1-(3-chlorophenyl)ethyl)-8-isopropyl-2-((R)-piperidin-3-yloxy)pyrazolo[1,5-a][1,3,5]triazin-4-amine]
+++ (IC50>2500 nM)	> 100	+++ (IC50>2500 nM)	COc1cccc([C@H](C)Nc2nc(CN3CCNCC3)nc3c(C(C)C)cnn23)c1 [(XXIX-1), (S)-8-isopropyl-N-(1-(3-methoxyphenyl)ethyl)-2-(piperazin-1-ylmethyl)pyrazolo[1,5-a][1,3,5]triazin-4-amine]
+++ (IC50>2500 nM)	> 100	+++ (IC50>2500 nM)	CCOc1ccccc1[C@H](C)Nc1nc(O[C@@H]2CCCNC2)nc2c(C(C)C)cnn12 [(VII-aw), N-((S)-1-(2-ethoxyphenyl)ethyl)-8-isopropyl-2-((R)-piperidin-3-yloxy)pyrazolo[1,5-a][1,3,5]triazin-4-amine]
+++ (IC50>2500 nM)	> 100	+++ (IC50>2500 nM)	COc1cccc([C@H](C)Nc2nc(N3CCCC(N)C3)nc3c(C(C)C)cnn23)c1 (stereo partly drawn) [(VIII-p), 2-(3-aminopiperidin-1-yl)-8-isopropyl-N-((S)-1-(3-methoxyphenyl)ethyl)pyrazolo[1,5-a][1,3,5]triazin-4-amine]
